Measured values published in patent US5028613A, “Novel pyrroloquinoline alkaloids and methods of use” (Repligen Corporation, priority 1990, dated 1991).
Converted amounts (≈) assume the structure as drawn. Like-named read-outs stand apart in the source and are kept apart here.

What was measured:
[1] = tested on: P388 murine leukemia cells; experiment: P388 mouse leukemia cell antiproliferative assay (MTT); format: cell-based; details: 48 hour exposure
Protocol: P388 murine leukemia cells obtained from Dr. J. Mayo, National Cancer Institute, Bethesda, Md., were maintained in Roswell Park Memorial Institute medium 1640 (RPMI-1640) supplemented with 10% horse serum and cultured in plastic tissue culture flasks and kept in an incubator at 37° C. in humidified air containing 5% CO2. Antibiotic-free stock cultures of P388 cells were subcultured to 10^5 cells/ml by dilutions in fresh growth medium at 2 to 5 day intervals.
(§1) To assess the antiproliferative effects of agents against P388 cells, 200 μl cultures (96-well tissue culture plates, Nunc, Denmark) were established at 1×10^5 cells/ml in drug-free medium containing agents at various concentrations. After 48 hour exposures, P388 cells were enumerated using 3-[4,5-dimethylthiazol-2-yl]-2,5-diphenyltetrazolium bromide (MTT) as described below.
(§2) To quantitate the effects of agents on cell proliferation, 75 μl warm growth medium containing 5 mg/ml MTT was added to each well. Cultures were returned to the incubator and left undisturbed for 90 minutes. To spectrophotometrically quantitate formation of reduced formazan, plates were centrifuges (900 g, 5 minutes), culture fluids were removed by aspiration, and 200 μl of acidified isopropanol (2 ml concentrated HCl/L isopropanol) added per well. The absorbance of the resulting solutions were measured at 570 nm with a plate reader (MR700 Microplate Reader, Dynatech Laboratories, Chantilly, Va.). […] A linear relationship between P388 cell number and formazan production was found over the range of cell densities observed in this study.

[2] = tested on: HT29 cell line; experiment: HT29 cell assay (analogous MTT procedure); format: cell-based; details: Homo sapiens, HT-29; procedure analogous to P388
Protocol: as §1, §2
(§3) Analogous procedures were followed for the A549 and HT29 cell lines.

[3] = tested on: C. albicans; experiment: C. albicans MIC (microtiter broth dilution); format: cell-based, Candida albicans (ATCC strain 44506); details: Candida albicans, read-out: C. albicans MIC
Protocol: (§4) All media were autoclaved at 121° C. for 15 minutes. Candida albicans: C. albicans (ATCC strain 44506) was grown on Sabouraud dextrose agar to produce single colonies, one of which was used to inoculate Sabouraud dextrose broth. The broth was incubated at 37° C. with shaking at 200 rpm for 18 hours. The resultant culture was brought to 10% (v/v) glycerol, frozen at -80° C., and used as the inoculum for the anti-Candida assay. Aspergillus nidulans: A. nidulans (ATCC strain 36321) was grown from a spore stock on the surface of a YAG plate (YAG: yeast extract 0.5%; glucose 2%; agar 2%) at 30° C. until the colony sporulated; at this point the colony was green (usually within one week). Spores were harvested by washing with 0.1% (v/v) TRITON™ X-100. Spores were then washed with distilled water before freezing at -80° C. in the presence of 10% (v/v) glycerol. Bacillus subtilis: Standard spore stocks (ATCC strain 6633) were purchased from Difco (#0453-36-0). Escherichia coli: The BMR strain was used. This was grown overnight with shaking at 37° C. in nutrient broth and frozen in 1 mL aliquots in the presence of 10% (v/v) glycerol at -80° C. Pseudomonas aeruginosa: (ATCC strain 27853) Grown and stored as described for E. coli.
Two-fold dilutions of the drug/extract were prepared in 50 μL volumes of a suitable solvent using 96-well microtiter plates. A 25% mixture of MeOH in water was generally used; however, EtOH, 5% EtOAc in EtOH, DMSO, or other compatible solvents could be substituted if necessary. In a separate 96-well plate, 35 μL volumes of either Sabouraud dextrose broth or RPMI-1640 were placed in each well. The drug/extract (5 μL) was then transferred to the broth using a 12-place pipettor. An inoculum of C. albicans in the appropriate medium was added to give a cell density of 1000 cells/mL and a total volume of 50 μL. […] SDB plates were incubated at 37° C. overnight, RPMI-1640 plates were incubated at 37° C. in a humidified atmosphere of 10% CO2.

[4] = tested on: A549 cell line; experiment: A549 cell assay (analogous MTT procedure); format: cell-based; details: Homo sapiens, procedure analogous to P388
Protocol: as §1, §2, §3

[5] = tested on: B. subtilis; experiment: B. subtilis growth inhibition (disc diffusion assay); format: cell-based, Bacillus subtilis (ATCC strain 6633); details: result in words
Protocol: as §4, with “This was grown overnight with shaking at 37° C. in nutrient broth and frozen in 1 mL aliquots in the presence of 10% (v/v) glycerol at -80° C. Pseudomonas aeruginosa: (ATCC strain 27853) Grown and stored as described for E. coli.” left out
Paper discs (6.35 mm) were impregnated with the test substance and allowed to dry. […] Plates were incubated overnight (C. albicans, B. subtilis, E. coli, and P. aeruginosa 37° C.; and A. nidulans 30° C.) after which time the zones of growth inhibition could be read. These are expressed as the diameter of the zone in millimeters. […]

[6] = lowest concentration completely inhibiting growth

IC50 [1] [µg/mL] | IC50 [2] [µg/mL] | MIC [3, 6] [µg/mL] | IC50 [4] [µg/mL] | SMILES | inhibition of the growth of B. subtilis [5] | MIC [3] [µg/mL]
0.42 (≈ 1.49 µM) | 0.44 (≈ 1.56 µM) | 3.1 (≈ 11 µM) | 0.07 (≈ 0.248 µM) | CSc1c2c3c(n1C)C(=O)C(N)=C(Cl)C3=NCC2 [Isobatzelline A] | inhibit the growth of B. subtilis | –
2.6 (≈ 10.5 µM) | 2.5 (≈ 10.1 µM) | 25 (≈ 101 µM) | 2.8 (≈ 11.3 µM) | CSc1c2c3c(n1C)C(=O)C(N)=CC3=NCC2 [Isobatzelline B] | – | –
20 (≈ 71.5 µM) | > 20 | 25 (≈ 89.4 µM) | > 20 | CSc1c2ccnc3c2c(n1C)C(=O)C(N)=C3Cl [Isobatzelline D] | – | –

SMILES | IC50 [1] [µg/mL] | IC50 [2] [µg/mL] | MIC [3, 6] [µg/mL] | IC50 [4] [µg/mL] | inhibition of the growth of B. subtilis [5] | MIC [3] [µg/mL]
Cn1cc2c3c1C(=O)C(N)=C(Cl)C3=NCC2 [Isobatzelline C] | 12.6 (≈ 53.5 µM) | 10 (≈ 42.4 µM) | – | > 20 | – | 50 (≈ 212 µM)
